Legend:
[1] = target: T1, Cytochrome P450 11B1, mitochondrial (Homo sapiens, UniProt P15538); test: Inhibition of human CYP11B1 expressed in V79 hamster fibroblasts
T1 sequence (P15538 whole entry): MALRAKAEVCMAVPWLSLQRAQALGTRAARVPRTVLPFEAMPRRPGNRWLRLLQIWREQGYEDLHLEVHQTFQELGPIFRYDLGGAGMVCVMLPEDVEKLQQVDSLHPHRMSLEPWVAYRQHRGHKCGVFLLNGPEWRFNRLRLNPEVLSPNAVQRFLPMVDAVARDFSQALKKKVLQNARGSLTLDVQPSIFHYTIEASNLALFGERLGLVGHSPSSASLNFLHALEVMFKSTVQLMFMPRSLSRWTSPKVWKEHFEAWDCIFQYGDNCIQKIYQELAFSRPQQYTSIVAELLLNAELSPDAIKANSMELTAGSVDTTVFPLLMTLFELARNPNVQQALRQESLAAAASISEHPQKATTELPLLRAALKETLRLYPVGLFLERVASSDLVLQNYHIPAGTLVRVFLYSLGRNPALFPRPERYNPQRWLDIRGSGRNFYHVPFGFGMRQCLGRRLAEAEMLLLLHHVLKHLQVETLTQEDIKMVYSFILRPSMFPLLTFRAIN

[2] = target: T2, Cytochrome P450 11B2, mitochondrial (Homo sapiens, UniProt P19099); test: Inhibition of aldosterone synthase (CYP11B2) expressed in V79 hamster fibroblasts
T2 sequence (P19099 whole entry): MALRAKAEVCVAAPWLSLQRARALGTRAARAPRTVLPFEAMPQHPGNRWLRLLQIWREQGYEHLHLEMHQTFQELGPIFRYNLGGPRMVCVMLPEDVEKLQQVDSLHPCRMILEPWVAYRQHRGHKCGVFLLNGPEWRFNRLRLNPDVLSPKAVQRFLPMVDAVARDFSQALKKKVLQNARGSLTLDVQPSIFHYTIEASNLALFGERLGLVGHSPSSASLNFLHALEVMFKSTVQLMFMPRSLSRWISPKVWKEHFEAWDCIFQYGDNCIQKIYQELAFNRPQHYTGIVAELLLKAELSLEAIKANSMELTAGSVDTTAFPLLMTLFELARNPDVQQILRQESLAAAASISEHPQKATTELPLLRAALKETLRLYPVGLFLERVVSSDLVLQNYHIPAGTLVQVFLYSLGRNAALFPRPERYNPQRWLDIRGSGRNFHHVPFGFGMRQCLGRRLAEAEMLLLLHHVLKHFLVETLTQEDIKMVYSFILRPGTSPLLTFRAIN

Homo sapiens = species: Homo sapiens; test: Selectivity for human CYP11B1 over CYP11B2

| IC50 [1] | IC50 [2] | Ratio IC50 (Homo sapiens) | SMILES |
| --- | --- | --- | --- |
| 2900 nM | 14 nM | 207 | c1cncc(-c2ccc3c4c(cccc24)CC3)c1 |
| – | – | 245 | c1cncc(-c2ccc3cccc4c3c2CC4)c1 |
